The results in this text go back to publication PMC10614625 (Proceedings of the National Academy of Sciences of the …, 2023).

One may read the IC50 as the point on the concentration scale where inhibition reaches its midpoint. A word on the EC50: it is the concentration giving half of the maximal effect.

Assay [1] concerns the target T1, ApGLNT1 (Acyrthosiphon pisum, UniProt F8RL01).
T1 sequence (F8RL01 1-500): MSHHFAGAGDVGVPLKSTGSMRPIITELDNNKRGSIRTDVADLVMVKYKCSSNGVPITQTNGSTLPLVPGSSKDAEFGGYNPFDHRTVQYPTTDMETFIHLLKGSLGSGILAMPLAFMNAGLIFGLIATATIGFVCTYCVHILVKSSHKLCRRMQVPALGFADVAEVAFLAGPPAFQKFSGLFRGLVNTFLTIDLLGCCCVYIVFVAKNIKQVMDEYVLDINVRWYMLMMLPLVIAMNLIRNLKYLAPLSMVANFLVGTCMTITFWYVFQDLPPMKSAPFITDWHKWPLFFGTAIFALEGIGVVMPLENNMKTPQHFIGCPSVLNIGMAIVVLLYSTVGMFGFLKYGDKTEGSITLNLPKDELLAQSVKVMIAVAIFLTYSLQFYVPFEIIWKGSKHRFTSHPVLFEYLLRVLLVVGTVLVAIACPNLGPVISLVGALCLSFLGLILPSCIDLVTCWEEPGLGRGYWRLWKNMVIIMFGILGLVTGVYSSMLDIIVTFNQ
The assay can be described thus: cell-based.

In assay [2] the target is T2, PcitGLNT1 (Planococcus citri, UniProt A0A2L0RIC1).
T2 sequence (A0A2L0RIC1 1-502): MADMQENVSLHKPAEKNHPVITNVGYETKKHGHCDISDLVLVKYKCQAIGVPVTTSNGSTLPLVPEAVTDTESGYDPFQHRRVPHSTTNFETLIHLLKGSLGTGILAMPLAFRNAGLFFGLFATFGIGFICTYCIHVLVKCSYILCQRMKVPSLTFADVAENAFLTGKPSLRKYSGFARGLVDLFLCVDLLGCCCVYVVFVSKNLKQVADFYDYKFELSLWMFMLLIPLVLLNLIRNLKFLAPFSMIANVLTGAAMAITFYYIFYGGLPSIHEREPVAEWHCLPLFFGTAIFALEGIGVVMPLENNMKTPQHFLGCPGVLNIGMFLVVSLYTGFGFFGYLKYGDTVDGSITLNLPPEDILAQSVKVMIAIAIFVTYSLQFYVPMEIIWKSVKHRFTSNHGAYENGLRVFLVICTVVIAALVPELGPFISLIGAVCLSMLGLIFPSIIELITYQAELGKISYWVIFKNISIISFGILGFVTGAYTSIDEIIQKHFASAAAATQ
Kind of assay: cell-based.

The target of assay [3] is T3, PhumGLNT1 (Pediculus humanus, UniProt A0A2L0RIB5).
T3 sequence (A0A2L0RIB5 1-513): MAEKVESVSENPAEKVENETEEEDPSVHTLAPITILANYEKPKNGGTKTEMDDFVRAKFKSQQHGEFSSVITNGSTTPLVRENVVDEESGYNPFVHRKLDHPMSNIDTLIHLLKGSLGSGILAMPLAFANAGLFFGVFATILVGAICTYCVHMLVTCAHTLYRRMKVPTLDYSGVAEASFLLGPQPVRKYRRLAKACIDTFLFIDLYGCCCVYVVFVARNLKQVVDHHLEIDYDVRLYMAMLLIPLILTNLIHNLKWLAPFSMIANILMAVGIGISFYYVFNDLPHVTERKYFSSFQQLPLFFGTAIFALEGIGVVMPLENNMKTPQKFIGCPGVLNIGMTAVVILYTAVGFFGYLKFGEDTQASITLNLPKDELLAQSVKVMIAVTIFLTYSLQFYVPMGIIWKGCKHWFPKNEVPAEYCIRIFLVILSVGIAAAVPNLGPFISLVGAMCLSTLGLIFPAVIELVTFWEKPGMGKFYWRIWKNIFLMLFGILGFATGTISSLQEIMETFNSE
Kind of assay: cell-based.

In assay [4] the target is T4, DcitGLNT1 (Diaphorina citri, UniProt A0A2L0RID4).
T4 sequence (A0A2L0RID4 1-508): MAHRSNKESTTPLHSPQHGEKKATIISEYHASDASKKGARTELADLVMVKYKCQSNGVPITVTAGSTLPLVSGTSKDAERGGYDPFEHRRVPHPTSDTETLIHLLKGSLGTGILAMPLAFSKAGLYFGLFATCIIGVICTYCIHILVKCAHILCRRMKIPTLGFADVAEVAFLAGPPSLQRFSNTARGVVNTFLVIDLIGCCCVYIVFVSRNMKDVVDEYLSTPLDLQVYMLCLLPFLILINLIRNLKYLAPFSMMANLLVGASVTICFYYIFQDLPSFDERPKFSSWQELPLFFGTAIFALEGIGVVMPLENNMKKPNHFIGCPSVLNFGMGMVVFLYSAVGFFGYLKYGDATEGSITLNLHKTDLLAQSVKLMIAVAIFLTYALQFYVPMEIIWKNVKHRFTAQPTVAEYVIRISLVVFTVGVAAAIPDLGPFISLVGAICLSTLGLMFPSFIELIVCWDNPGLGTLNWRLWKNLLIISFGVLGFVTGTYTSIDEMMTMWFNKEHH
The assay can be described thus: cell-based.

Assay [5] has as its target T2, PcitGLNT1. Kind of assay: two-electrode voltage clamp, inward current in Xenopus oocytes. The format is cell-based. Background: In two-electrode clamp one electrode senses voltage and the other passes current.
Assay [6] deals with T3, PhumGLNT1. Described as above. The format is cell-based.
Assay [7] concerns the target T1, ApGLNT1. Described as above. It counts as cell-based.
Assay [8] concerns the target T4, DcitGLNT1. The assay is described as above. It counts as cell-based.

With `N=C(N)NCCC[C@H](N)C(=O)O` [arginine], the half-maximal inhibitory concentration (IC50) in assay [1] was 5.1 ± 0.9 mM; in assay [2], 2.5 ± 0.2 mM; in assay [3], 2.8 ± 2 mM; in assay [4], 6.1 ± 0.8 mM.

For the compound `NC(=O)CC[C@H](N)C(=O)O` [glutamine], the EC50 in assay [5] came to 2.1 ± 0.2 mM; in assay [6] it was 1.5 ± 0.2 mM; in assay [7] it was 5.7 ± 0.8 mM; in assay [8], 35.2 ± 18.5 mM.
